Columns and labels:
Cytochrome P450 2C9 = Cytochrome P450 2C9 (Homo sapiens, UniProt P11712); assay: Inhibition of CYP2C9 in human liver microsomes using diclofenac as substrate by LC-MS analysis; type: ADME, Microsome
Cytochrome P450 2C8 = biological target: T1, Cytochrome P450 2C8 (Homo sapiens, UniProt P10632); assay: Inhibition of CYP2C8 in human liver microsomes using amodiaquine as substrate by LC-MS analysis; type: ADME, Microsome
T1 sequence (P10632 whole entry): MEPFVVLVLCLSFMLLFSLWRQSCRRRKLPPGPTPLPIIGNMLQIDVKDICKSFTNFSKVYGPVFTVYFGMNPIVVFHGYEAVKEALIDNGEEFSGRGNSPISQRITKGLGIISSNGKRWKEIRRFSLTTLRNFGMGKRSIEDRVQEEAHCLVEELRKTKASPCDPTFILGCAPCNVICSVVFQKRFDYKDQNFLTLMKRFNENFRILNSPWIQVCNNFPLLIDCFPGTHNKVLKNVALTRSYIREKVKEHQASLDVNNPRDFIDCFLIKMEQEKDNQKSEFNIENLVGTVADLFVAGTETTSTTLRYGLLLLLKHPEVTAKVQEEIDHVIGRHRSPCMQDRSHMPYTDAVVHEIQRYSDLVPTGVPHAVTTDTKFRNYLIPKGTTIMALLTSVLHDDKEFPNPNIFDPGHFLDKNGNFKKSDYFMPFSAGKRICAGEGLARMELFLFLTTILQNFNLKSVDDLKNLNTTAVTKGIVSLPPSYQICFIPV

[1] = Clearance in cynomolgus monkey at 1 mg/kg, iv and measured upto 24 hrs by LC-MS/MS analysis; type: ADME, organism-based, Macaca fascicularis; details: in vivo
[2] = AUC in Sprague-Dawley rat at 3 mg/kg, po and measured upto 24 hrs by LC-MS/MS analysis; type: ADME, organism-based; parameters: dose 3 mg/kg, time < 24 hrs, route po; details: in vivo
Cytochrome P450 2C19 = Cytochrome P450 2C19 (Homo sapiens, UniProt P33261); assay: Inhibition of CYP2C19 in human liver microsomes using S mephenytoin as substrate by LC-MS analysis; type: ADME, Microsome
[3] = Fraction unbound in human plasma by LC-MS/MS analysis; type: ADME, cell-free
Cytochrome P450 2D6 = Cytochrome P450 2D6 (Homo sapiens, UniProt P10635); assay: Inhibition of CYP2D6 in human liver microsomes using bufuralol as substrate by LC-MS analysis; type: ADME, Microsome
[4] = Clearance in Sprague-Dawley rat at 1.5 mg/kg, iv and measured upto 24 hrs by LC-MS/MS analysis; type: ADME, organism-based; details: in vivo
Cytochrome P450 1A2 = biological target: T2, Cytochrome P450 1A2 (Homo sapiens, UniProt P05177); assay: Inhibition of CYP1A2 in human liver microsomes using 7- ethoxyresorufin as substrate by LC-MS analysis; type: ADME, Microsome
T2 sequence (P05177 whole entry): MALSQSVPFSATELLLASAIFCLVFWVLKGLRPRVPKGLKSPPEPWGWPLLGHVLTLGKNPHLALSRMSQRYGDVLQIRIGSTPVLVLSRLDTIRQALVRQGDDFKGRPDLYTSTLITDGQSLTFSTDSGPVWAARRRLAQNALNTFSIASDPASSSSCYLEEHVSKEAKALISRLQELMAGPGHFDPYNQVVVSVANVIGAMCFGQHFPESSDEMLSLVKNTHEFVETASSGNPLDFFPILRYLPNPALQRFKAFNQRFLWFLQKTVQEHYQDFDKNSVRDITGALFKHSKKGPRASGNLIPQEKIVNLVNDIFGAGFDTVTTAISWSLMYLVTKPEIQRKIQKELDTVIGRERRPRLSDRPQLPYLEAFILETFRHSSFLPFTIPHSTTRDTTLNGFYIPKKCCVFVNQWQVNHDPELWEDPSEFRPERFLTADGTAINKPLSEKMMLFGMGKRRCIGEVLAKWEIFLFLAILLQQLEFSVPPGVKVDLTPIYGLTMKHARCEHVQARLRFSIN

hERG (KCNH2) = hERG (KCNH2) (Homo sapiens, UniProt Q12809); assay: Inhibition of human ERG at 5 uM by patch-clamp assay; type: toxicity
[5] = Half life in cynomolgus monkey at 1 mg/kg, iv and measured upto 24 hrs by LC-MS/MS analysis; type: ADME, organism-based, Macaca fascicularis; details: in vivo
[6] = Permeability across apical to basolateral side in human Caco2 cells at 50 uM and measured after 120 mins by LC-MS analysis; type: ADME, cell-based; details: Caco-2, read-out: permeability
[7] = biological target: T3, Mitogen-activated protein kinase kinase kinase kinase 1 (Homo sapiens, UniProt Q92918); assay: Binding affinity to recombinant human HPK1 (1 to 346 residues) expressed sf9 cells incubated for 1 hr by LanthaScreen assay
[8] = biological target: T3, Mitogen-activated protein kinase kinase kinase kinase 1; assay: Inhibition of human HPK1 in human whole blood assessed as reduction in SLP76 phosphorylation incubated for 1 hr by HTRF assay; type: tissue-based
[9] = Intrinsic clearance in human liver microsomes at 1 uM and measured upto 30 mins in presence of NADPH by LC-MS analysis; type: ADME, Microsome; details: read-out: CLH (converted)
Cytochrome P450 2B6 = biological target: T4, Cytochrome P450 2B6 (Homo sapiens, UniProt P20813); assay: Inhibition of CYP2B6 in human liver microsomes using bupropion as substrate by LC-MS analysis; type: ADME, Microsome
T4 sequence (P20813 whole entry): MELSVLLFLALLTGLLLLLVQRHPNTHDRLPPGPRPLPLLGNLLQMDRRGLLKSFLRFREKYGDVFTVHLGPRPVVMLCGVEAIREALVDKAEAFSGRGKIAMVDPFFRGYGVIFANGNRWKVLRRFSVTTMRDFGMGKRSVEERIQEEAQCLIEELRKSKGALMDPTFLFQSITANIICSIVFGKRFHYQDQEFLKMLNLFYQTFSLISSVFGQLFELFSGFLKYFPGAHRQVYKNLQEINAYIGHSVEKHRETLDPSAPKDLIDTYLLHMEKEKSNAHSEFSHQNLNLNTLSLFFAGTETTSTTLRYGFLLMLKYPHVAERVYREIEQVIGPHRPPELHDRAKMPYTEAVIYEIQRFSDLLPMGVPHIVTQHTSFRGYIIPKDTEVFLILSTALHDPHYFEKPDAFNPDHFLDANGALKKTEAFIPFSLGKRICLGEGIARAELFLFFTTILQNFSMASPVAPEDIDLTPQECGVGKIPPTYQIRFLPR

[10] = AUC in cynomolgus monkey at 3 mg/kg, po and measured upto 24 hrs by LC-MS/MS analysis; type: ADME, organism-based, Macaca fascicularis; parameters: dose 3 mg/kg, time < 24 hrs, route po; details: in vivo
Cytochrome P450 3A4 = Cytochrome P450 3A4 (Homo sapiens, UniProt P08684); assay: Inhibition of CYP3A4 in human liver microsomes using testosterone as substrate by LC-MS analysis; type: ADME, Microsome
[11] = biological target: T3, Mitogen-activated protein kinase kinase kinase kinase 1; assay: Inhibition of human HPK1 in human Jurkat cells assessed as reduction in SLP76 phosphorylation incubated for 1 hr by HTRF assay; type: cell-based
[12] = Volume of distribution at steady state in cynomolgus monkey at 1 mg/kg, iv and measured upto 24 hrs by LC-MS/MS analysis; type: ADME, organism-based, Macaca fascicularis; details: in vivo
[13] = Oral bioavailability in cynomolgus monkey at 3 mg/kg and measured upto 24 hrs by LC-MS/MS analysis; type: ADME, organism-based, Macaca fascicularis; details: in vivo

T3 sequence (Q92918 whole entry, the tested form may be a part): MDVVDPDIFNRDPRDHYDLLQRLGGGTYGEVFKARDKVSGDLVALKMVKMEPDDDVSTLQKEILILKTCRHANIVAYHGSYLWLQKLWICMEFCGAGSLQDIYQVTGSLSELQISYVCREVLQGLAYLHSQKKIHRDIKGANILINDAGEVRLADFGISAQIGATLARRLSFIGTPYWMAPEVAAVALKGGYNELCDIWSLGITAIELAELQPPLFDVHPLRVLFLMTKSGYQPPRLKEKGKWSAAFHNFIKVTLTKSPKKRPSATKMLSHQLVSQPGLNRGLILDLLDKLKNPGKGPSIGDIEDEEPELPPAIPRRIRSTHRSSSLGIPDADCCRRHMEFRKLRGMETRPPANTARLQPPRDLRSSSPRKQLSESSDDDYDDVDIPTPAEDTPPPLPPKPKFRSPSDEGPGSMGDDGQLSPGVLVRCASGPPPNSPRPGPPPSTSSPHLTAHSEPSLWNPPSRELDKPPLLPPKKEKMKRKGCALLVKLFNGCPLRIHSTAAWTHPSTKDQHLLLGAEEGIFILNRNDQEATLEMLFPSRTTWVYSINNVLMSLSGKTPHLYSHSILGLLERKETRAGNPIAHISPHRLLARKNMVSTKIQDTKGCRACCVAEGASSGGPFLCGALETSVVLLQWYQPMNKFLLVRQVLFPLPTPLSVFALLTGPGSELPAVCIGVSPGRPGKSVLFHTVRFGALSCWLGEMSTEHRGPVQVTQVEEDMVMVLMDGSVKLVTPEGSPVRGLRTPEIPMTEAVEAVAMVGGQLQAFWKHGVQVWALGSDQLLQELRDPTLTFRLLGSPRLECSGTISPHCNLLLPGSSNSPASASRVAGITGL
Sequence of hERG (KCNH2) (Q12809 whole entry): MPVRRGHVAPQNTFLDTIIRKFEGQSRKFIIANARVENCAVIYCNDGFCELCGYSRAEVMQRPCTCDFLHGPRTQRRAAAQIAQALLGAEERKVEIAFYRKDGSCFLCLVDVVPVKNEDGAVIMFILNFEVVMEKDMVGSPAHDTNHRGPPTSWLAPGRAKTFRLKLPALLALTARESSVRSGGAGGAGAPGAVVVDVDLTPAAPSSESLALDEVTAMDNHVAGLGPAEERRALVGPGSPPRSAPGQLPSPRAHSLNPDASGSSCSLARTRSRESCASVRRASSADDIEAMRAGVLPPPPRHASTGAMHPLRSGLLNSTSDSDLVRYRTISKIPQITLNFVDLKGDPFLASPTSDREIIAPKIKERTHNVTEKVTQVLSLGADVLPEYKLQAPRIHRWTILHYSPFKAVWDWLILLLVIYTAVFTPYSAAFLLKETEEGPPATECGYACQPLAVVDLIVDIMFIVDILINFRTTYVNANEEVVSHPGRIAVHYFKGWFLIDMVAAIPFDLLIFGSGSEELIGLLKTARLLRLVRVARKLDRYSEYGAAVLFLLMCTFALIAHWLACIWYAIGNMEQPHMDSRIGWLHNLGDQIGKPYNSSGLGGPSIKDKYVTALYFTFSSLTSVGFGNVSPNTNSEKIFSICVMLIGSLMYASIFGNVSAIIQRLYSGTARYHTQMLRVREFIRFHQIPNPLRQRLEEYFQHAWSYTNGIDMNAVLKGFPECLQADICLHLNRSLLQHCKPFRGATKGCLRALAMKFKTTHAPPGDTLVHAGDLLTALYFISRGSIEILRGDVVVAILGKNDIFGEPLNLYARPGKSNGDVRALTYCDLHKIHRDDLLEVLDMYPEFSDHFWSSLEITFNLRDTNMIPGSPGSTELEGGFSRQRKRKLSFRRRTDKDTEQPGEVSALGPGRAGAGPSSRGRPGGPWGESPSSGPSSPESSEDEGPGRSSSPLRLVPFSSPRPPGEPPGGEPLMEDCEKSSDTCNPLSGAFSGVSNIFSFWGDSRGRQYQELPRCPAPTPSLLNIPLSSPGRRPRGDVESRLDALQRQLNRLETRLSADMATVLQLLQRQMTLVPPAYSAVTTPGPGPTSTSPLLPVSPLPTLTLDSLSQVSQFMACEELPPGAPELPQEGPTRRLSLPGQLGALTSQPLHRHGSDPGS
Sequence of Cytochrome P450 2C19 (P33261 whole entry): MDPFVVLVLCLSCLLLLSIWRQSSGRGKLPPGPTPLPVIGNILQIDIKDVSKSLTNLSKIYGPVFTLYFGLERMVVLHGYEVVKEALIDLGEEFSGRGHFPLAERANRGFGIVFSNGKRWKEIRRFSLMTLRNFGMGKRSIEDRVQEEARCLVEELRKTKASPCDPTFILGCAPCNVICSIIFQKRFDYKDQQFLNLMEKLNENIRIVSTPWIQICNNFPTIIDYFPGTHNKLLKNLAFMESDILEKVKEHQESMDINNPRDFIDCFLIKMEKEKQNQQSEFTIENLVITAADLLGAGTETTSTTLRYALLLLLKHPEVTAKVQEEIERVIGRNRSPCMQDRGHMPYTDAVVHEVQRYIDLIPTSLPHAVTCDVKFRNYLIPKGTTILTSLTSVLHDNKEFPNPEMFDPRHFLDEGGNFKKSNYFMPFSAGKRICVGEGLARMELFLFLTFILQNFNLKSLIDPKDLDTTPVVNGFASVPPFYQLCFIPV
Sequence of Cytochrome P450 2C9 (P11712 whole entry): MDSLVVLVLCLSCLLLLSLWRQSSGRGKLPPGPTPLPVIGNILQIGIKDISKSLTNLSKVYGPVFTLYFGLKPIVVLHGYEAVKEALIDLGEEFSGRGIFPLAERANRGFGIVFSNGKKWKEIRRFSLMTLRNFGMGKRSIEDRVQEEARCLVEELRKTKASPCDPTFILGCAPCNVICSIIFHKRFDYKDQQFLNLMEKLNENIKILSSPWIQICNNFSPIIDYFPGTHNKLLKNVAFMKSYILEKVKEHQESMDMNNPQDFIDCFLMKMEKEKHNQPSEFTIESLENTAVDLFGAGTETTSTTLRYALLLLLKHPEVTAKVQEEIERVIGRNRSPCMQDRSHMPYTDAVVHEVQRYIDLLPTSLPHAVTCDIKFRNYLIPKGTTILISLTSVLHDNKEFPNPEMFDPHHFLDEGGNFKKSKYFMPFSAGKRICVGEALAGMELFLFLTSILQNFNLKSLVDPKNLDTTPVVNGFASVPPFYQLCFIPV
Sequence of Cytochrome P450 3A4 (P08684 whole entry): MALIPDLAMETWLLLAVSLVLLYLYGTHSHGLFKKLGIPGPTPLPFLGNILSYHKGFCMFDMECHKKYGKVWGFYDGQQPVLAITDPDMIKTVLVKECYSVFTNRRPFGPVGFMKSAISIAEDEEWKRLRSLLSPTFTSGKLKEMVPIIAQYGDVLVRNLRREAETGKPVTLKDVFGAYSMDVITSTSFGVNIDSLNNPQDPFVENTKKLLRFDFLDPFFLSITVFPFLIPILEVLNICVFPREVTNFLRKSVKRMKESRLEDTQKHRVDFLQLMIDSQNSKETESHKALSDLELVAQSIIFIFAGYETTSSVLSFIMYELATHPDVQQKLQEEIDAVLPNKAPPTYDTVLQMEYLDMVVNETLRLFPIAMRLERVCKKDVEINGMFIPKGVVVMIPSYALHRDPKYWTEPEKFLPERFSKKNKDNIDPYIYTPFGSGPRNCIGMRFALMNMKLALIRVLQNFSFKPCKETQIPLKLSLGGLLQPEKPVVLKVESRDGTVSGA
Sequence of Cytochrome P450 2D6 (P10635 whole entry): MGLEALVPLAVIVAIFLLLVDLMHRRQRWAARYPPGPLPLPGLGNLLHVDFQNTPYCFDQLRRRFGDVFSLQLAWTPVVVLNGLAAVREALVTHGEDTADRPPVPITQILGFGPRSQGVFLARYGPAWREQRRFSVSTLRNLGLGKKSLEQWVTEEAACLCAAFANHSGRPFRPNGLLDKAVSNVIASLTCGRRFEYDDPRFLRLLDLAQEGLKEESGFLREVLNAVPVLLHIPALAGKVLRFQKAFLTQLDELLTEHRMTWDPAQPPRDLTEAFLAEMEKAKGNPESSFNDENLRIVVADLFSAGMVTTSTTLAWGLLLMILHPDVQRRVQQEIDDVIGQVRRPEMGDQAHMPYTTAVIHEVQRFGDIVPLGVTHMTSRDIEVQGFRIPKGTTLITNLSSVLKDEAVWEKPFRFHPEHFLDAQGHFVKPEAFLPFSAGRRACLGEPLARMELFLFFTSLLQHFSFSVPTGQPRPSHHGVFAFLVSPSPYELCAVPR

## Cc1cc(CN2CCC2)cc(F)c1-c1cc2c(-c3cnn(C)c3)n[nH]c2cn1
Cytochrome P450 2C9
  IC50: > 15 µM
Cytochrome P450 2C8
  IC50: > 15 µM
[1]
  clearance: 0.95 L/h/kg
[2]
  AUC at 24 h: 1.1 µM·h
Cytochrome P450 2C19
  IC50: > 15 µM
[3]
  fraction unbound: 0.43
Cytochrome P450 2D6
  IC50: > 15 µM
[4]
  clearance: 6.1 L/h/kg
Cytochrome P450 1A2
  IC50: > 15 µM
hERG (KCNH2)
  inhibition at 5 µM: 5%
[5]
  half-life: 6 h
[6]
  Papp A→B at 2 h, 50 µM: 31 nm/s
[7]
  Ki: 0.0041 µM
[8]
  IC50: 0.302 µM
[9]
  CLint scaled at 1 µM: 0.5 L/h/kg
Cytochrome P450 2B6
  IC50: > 15 µM
[10]
  AUC at 24 h: 9.77 µM·h
Cytochrome P450 3A4
  IC50: > 15 µM
[11]
  IC50: 0.146 µM
[12]
  Vdss: 4 L/kg
[13]
  bioavailability: 96%
